Results taken from patent US7608589B2, “Peptidyl diacylglycerides” (priority 2005, dated 2009).

Test system: immunoglobulin titers (IgG and IgM) specific for M. tuberculosis
Set-up: species or system rabbits
Settings: rabbit, in vivo, sc

FNNFTVSFWLRVPKVSASHLE [FNN-21, reference compound]
immunoglobulin titer, average absorbance, Day 1: 0.14 AU 405 nm | immunoglobulin titer, average absorbance, Day 3: 0.15 AU 405 nm | immunoglobulin titer, average absorbance, Day 5: 0.13 AU 405 nm | immunoglobulin titer, average absorbance, Day 7: 0.16 AU 405 nm | immunoglobulin titer, average absorbance, Day 10: 0.25 AU 405 nm | immunoglobulin titer, average absorbance, Day 14: 0.35 AU 405 nm
